Laboratory results as given in patent US20130142882A1, “METHODS AND COMPOSITIONS FOR TREATMENT, MODIFICATION AND MANAGEMENT OF BONE CANCER PAIN” (GOLDEN BIOTECHNOLOGY CORPORATION, priority 2011, published 2013).

Tested on: rat model of bone cancer pain (Walker 256 rat mammary gland carcinoma cells injected into the right tibia)
Experiment: Mechanical allodynia (Von Frey test) in a rat model of bone cancer pain
Assay type: in vivo, Rat (Sprague-Dawley)
Settings: 30 μg/kg s.c. every second day
Description: The objective of this study was to assess the potential anti-nociceptive and anti-tumourigenic effects of Compound 1, at doses of 15, 30 and 45 mg/kg, in an animal model of bone cancer pain. Metastasis of cancer cells to the bone was modeled by injecting Walker 256 rat mammary gland carcinoma cells into the medullary cavity of the right tibia (Mao-Yinga, et al. A rat model of bone cancer pain induced by intra-tibia inoculation of Walker 256 mammary gland carcinoma cells. Biochem Biophys Res Commun 2006; 345: 1292-1298). The development of mechanical allodynia was monitored using an established behavioural test (Von Frey test). Treatment administration was chronic, from the day of surgery, and administered twice daily for 21 days to determine whether there was a prophylactic effect on the development of mechanical allodynia. Zoledronic acid was used as a reference substance. No regulatory test guidelines were applicable to this study.
Rats have been studied in this model of bone cancer pain. The route of administration of Compound 1 and vehicle was oral. The doses of Compound 1 were 15, 30 and 45 mg/kg, twice a day (approximately 10 h apart) for 21 days.
The dose of zoledronic acid was 30 μg/kg, as a single administration, every second day from the day of surgery, based on historical data. The route of administration of zoledronic acid was subcutaneous.
The dose volume for test substance and vehicle treatments was 5 mL/kg. The vehicle for Compound 1 was corn oil. Each rat allocated to test substance or vehicle treatments received an oral dose, by gavage, twice daily (approximately 8 am and 6 pm) for 21 consecutive days. The dose volume for the reference substance treatment was 1 mL/kg. Each rat allocated to reference substance treatment received a single subcutaneous dose, by injection (approximately 8 am) every second day from the day of surgery.
Cell preparation. Walker 256 rat mammary gland carcinoma cells (obtained from the American Type Culture Collection (ATCC)) were harvested from sub-confluent cultures growing in vitro and the number of viable cells determined. Cells were then re-suspended in sterile phosphate buffered saline (PBS) at a concentration of 4×10^5 cells. Female Sprague-Dawley rats were intratibially injected in the right leg with 4×10^5 Walker 256 rat mammary gland carcinoma cells in a volume of 6 μL as detailed in Surgical procedure below.
Baseline behavioural testing. The rats were moved to the procedure room 5 days prior to behavioural testing. The rats were then housed, dosed and observed in the procedure room. The behavioural test was performed on all rats on 2 separate occasions prior to surgery, to establish baseline values. Pre-surgery baseline values were taken as the data from the final (second) day of testing (the data from the first day of testing was not included but classed as part of the acclimatisation).
Mechanical allodynia (Von Frey test): Each animal was placed in a wire mesh cage and a series of Von Frey filaments were applied to the plantar surface of the hind paw, from below. The filaments were applied in ascending order (starting with the weakest force), and the withdrawal threshold for both the left and right hind paws were evaluated. Each filament was indented on the mid-plantar surface of the foot to the point where it just started to bend; this was repeated approximately 8 to 10 times per filament at a frequency of approximately 1 Hz. The withdrawal threshold was defined as the lowest force of two or more consecutive Von Frey filaments to elicit a reflex withdrawal response (i.e. a brief paw flick).
Surgical procedure. The animals were surgically prepared over 2 days. Each rat was anaesthetised as necessary with isofluorane in […]. The surface around the incision site was shaved and sterilised. Under aseptic conditions, an incision was made in the skin over the top of the right tibia to expose the tibia head with minimal damage. […]

**Q.** For O=P(O)(O)C(O)(Cn1ccnc1)P(=O)(O)O [Zoledronic acid, reference compound], which “Withdrawal Threshold (Log 10 (force (g) × 10 000)) on Day Post-Operative” value (Day 6, left paw) is on record?
**A.** The value was 5.35 Log 10 (force (g) × 10 000).

**Q.** What about the “Withdrawal threshold (g) on day post-operative” value (“Withdrawal threshold (g)” below) (Day 6, left paw) of the same compound?
**A.** The value was 22.55 g.

**Q.** What about the “Withdrawal Threshold (Log 10 (force (g) × 10 000)) on Day Post-Operative” value (Day 6, right paw) of the same compound?
**A.** Its value is 5.28 Log 10 (force (g) × 10 000).

**Q.** What about the “Withdrawal threshold (g)” value (Day 6, right paw) of the same compound?
**A.** Its value is 19.49 g.

**Q.** And the “Withdrawal Threshold (Log 10 (force (g) × 10 000)) on Day Post-Operative” value (Day 12, left paw)?
**A.** The value was 5.17 Log 10 (force (g) × 10 000).

**Q.** What about the “Withdrawal threshold (g)” value (Day 12, left paw) of the same compound?
**A.** The value was 15.14 g.

**Q.** What about the “Withdrawal Threshold (Log 10 (force (g) × 10 000)) on Day Post-Operative” value (Day 12, right paw) of the same compound?
**A.** The value was 4.98 Log 10 (force (g) × 10 000).

**Q.** What about the “Withdrawal threshold (g)” value (Day 12, right paw) of the same compound?
**A.** Its value is 9.95 g.

**Q.** What about the “Withdrawal Threshold (Log 10 (force (g) × 10 000)) on Day Post-Operative” value (Day 14, left paw) of the same compound?
**A.** The value was 5.15 Log 10 (force (g) × 10 000).

**Q.** And the “Withdrawal threshold (g)” value (Day 14, left paw)?
**A.** The value was 15.02 g.

**Q.** What about the “Withdrawal Threshold (Log 10 (force (g) × 10 000)) on Day Post-Operative” value (Day 14, right paw) of the same compound?
**A.** The value was 4.99 Log 10 (force (g) × 10 000).

**Q.** What about the “Withdrawal threshold (g)” value (Day 14, right paw) of the same compound?
**A.** The value was 10.28 g.

**Q.** And the “Withdrawal Threshold (Log 10 (force (g) × 10 000)) on Day Post-Operative” value (Day 19, left paw)?
**A.** The value was 5.14 Log 10 (force (g) × 10 000).

**Q.** And the “Withdrawal threshold (g)” value (Day 19, left paw)?
**A.** Its value is 14.66 g.

**Q.** And the “Withdrawal Threshold (Log 10 (force (g) × 10 000)) on Day Post-Operative” value (Day 19, right paw)?
**A.** The value was 4.97 Log 10 (force (g) × 10 000).

**Q.** And the “Withdrawal threshold (g)” value (Day 19, right paw)?
**A.** Its value is 10.37 g.

**Q.** What about the “Withdrawal Threshold (Log 10 (force (g) × 10 000)) on Day Post-Operative” value (Day 21, left paw) of the same compound?
**A.** Its value is 5.15 Log 10 (force (g) × 10 000).

**Q.** What about the “Withdrawal threshold (g)” value (Day 21, left paw) of the same compound?
**A.** The value was 15.46 g.

**Q.** And the “Withdrawal threshold (g)” value (Day 21, left paw, listed as zoledronic acid)?
**A.** The value was 15.46 ± 2.06 g.

**Q.** And the “Withdrawal Threshold (Log 10 (force (g) × 10 000)) on Day Post-Operative” value (Day 21, right paw)?
**A.** The value was 5.04 Log 10 (force (g) × 10 000).

**Q.** And the “Withdrawal threshold (g)” value (Day 21, right paw)?
**A.** Its value is 13.25 g.

**Q.** And the “Withdrawal threshold (g)” value (Day 21, right paw, listed as zoledronic acid)?
**A.** Its value is 13.25 ± 2.28 g.

**Q.** And the “Withdrawal Threshold (Log 10 (force (g) × 10 000)) on Day Post-Operative” value (Pre-Surgery, left paw)?
**A.** The value was 5.32 Log 10 (force (g) × 10 000).

**Q.** And the “Withdrawal threshold (g)” value (Pre-Surgery, left paw)?
**A.** The value was 21.02 g.

**Q.** And the “Withdrawal Threshold (Log 10 (force (g) × 10 000)) on Day Post-Operative” value (Pre-Surgery, right paw)?
**A.** Its value is 5.30 Log 10 (force (g) × 10 000).

**Q.** What about the “Withdrawal threshold (g)” value (Pre-Surgery, right paw) of the same compound?
**A.** Its value is 20.26 g.
